Our source for the activation values is patent publication US10208030B2, “GPR119 agonist compounds” (Mankind Pharma Ltd., priority 2016, dated 2019).

This assay has as its target T1, hGPR119 (Homo sapiens, UniProt Q8TDV5).
T1 construct: expressed in transfected cells; host or cells: CHO cells (CHO-hGPR119)
T1 sequence (Q8TDV5 1-335): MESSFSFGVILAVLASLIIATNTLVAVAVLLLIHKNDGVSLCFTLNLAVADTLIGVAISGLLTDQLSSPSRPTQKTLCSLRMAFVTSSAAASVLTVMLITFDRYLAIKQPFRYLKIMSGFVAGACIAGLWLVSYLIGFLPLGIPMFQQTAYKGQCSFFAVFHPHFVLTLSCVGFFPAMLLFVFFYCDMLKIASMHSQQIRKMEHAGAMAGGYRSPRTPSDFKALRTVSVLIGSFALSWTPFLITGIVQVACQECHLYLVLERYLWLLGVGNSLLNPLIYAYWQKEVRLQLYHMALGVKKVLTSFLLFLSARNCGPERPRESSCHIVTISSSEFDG
As to the kind of experiment: In vitro cyclic AMP assay (Cisbio HTRF) in CHO-hGPR119 cells. The assay is classed as cell-based. Particulars: 1 h, cAMP, 1 μM, 60 min, read-out: Induction (% induction at 1 μM). How it is done:
cAMP measurements were done using Cisbio dynamic 2 HTRF kit according to the manufacturer's protocol. Briefly, CHO-hGPR119 cells were plated at a cell density of 5000 cells/well/5 μl into a white small volume 384 well plate. The final concentrations of IBMX and DMSO used were 1 mM and 0.5% respectively. Cells were treated with various concentrations of the test compound for 60 min at room temperature. Cells were lysed by buffer containing Anti-cAMP antibody and d2-cAMP reagents and incubated for 1 hour at room temperature. HTRF was measured at 337 nm excitation and emission wavelengths of 665 nm and 620 nm on a microplate reader (Flurostar, BMG Labtech). Graphpad prism software was utilized for EC50 determinations.
(In general: In TR-FRET formats the signal depends on donor and acceptor labels being close together.)
Take `CCc1cnc(N2CCC(c3nsnc3C(=O)Nc3ccc(S(C)(=O)=O)cc3F)CC2)nc1` [Compound 1015, 4-(1-(5-ethylpyrimidin-2-yl)piperidin-4-yl)-N-(2-fluoro-4-(methylsulfonyl)phenyl)-1,2,5-thiadiazole-3-carboxamide]: the activation at 1 µM worked out at 3%. The result for `CC(C)c1noc(C2CCN(c3nn4cc(-c5ccc(S(C)(=O)=O)cc5)nc4s3)CC2)n1` [Compound 1016, 3-isopropyl-5-(1-(6-(4-(methylsulfonyl)phenyl)imidazo[2,1-b][1,3,4]thiadiazol-2-yl)piperidin-4-yl)-1,2,4-oxadiazole] reads 54%; that for `CC(C)c1noc(N2CCC(COc3nn4cc(-c5ccc(S(C)(=O)=O)cc5)nc4s3)CC2)n1` [Compound 1017, 3-isopropyl-5-(4-(((6-(4-(methylsulfonyl)phenyl)imidazo[2,1-b][1,3,4]thiadiazol-2-yl)oxy)methyl)piperidin-1-yl)-1,2,4-oxadiazole], 39%.

Turning to `CC(C)c1noc(N2CCC(Oc3nn4cc(-c5ccc(S(C)(=O)=O)cc5)nc4s3)CC2)n1` [Compound 1018, 3-isopropyl-5-(4-((6-(4-(methylsulfonyl)phenyl)imidazo[2,1-b][1,3,4]thiadiazol-2-yl)oxy)piperidin-1-yl)-1,2,4-oxadiazole], the activation at 1 µM was determined as 20%. The result for `CS(=O)(=O)c1ccc(-c2cn3nc(C4CCN(Cc5ccccc5)CC4)sc3n2)cc1` [Compound 1019, 2-(1-benzylpiperidin-4-yl)-6-(4-(methylsulfonyl)phenyl)imidazo[2,1-b][1,3,4]thiadiazole] reads 11%. Consider `CC(C)OC(=O)N1CCN(c2nn3cc(-c4ccc(S(C)(=O)=O)cc4)nc3s2)CC1` [Compound 1020, isopropyl 4-(6-(4-(methylsulfonyl)phenyl)imidazo[2,1-b][1,3,4]thiadiazol-2-yl)piperazine-1-carboxylate], for which the activation at 1 µM came out at 1%.

As for `CC(C)OC(=O)N1CCC(N(C)c2nn3cc(-c4ccc(S(C)(=O)=O)cc4)nc3s2)CC1` [Compound 1022, isopropyl 4-(methyl(6-(4-(methylsulfonyl)phenyl)imidazo[2,1-b][1,3,4]thiadiazol-2-yl)amino)piperidine-1-carboxylate], the activation at 1 µM came to 16%. The result for `CCc1cnc(N2CCC(Nc3nn4cc(-c5ccc(S(C)(=O)=O)cc5)nc4s3)CC2)nc1` [Compound 1023, N-(1-(5-ethylpyrimidin-2-yl)piperidin-4-yl)-6-(4-(methylsulfonyl)phenyl)imidazo[2,1-b][1,3,4]thiadiazol-2-amine] reads 0%. As for `CC(C)OC(=O)N1CCC(c2nn3cc(-c4ccc(S(C)(=O)=O)cc4)nc3s2)CC1` [Compound 1024, isopropyl 4-(6-(4-(methylsulfonyl)phenyl)imidazo[2,1-b][1,3,4]thiadiazol-2-yl)piperidine-1-carboxylate], the figure is 38%. The result for `CN(c1nn2cc(-c3ccc(S(C)(=O)=O)cc3)nc2s1)C1CCN(C(N)=O)CC1` [Compound 1025, 4-(methyl(6-(4-(methylsulfonyl)phenyl)imidazo[2,1-b][1,3,4]thiadiazol-2-yl)amino)piperidine-1-carboxamide] reads 11%; that for `CC(C)c1noc(N2CCC(c3nn4cc(-c5ccc(S(C)(=O)=O)cc5)nc4s3)CC2)n1` [Compound 1027, 3-isopropyl-5-(4-(6-(4-(methylsulfonyl)phenyl)imidazo[2,1-b][1,3,4]thiadiazol-2-yl)piperidin-1-yl)-1,2,4-oxadiazole], 41%; that for `CC(C)c1noc(N2CCC(N(C)c3nn4cc(-c5ccc(S(C)(=O)=O)cc5)nc4s3)CC2)n1` [Compound 1029, N-(1-(3-isopropyl-1,2,4-oxadiazol-5-yl)piperidin-4-yl)-N-methyl-6-(4-(methylsulfonyl)phenyl)imidazo[2,1-b][1,3,4]thiadiazol-2-amine], 9%. Turning to `CC(C)OC(=O)N1CCC(c2cn3nc(-c4ccc(S(C)(=O)=O)cc4)sc3n2)CC1` [Compound 1030, isopropyl 4-(2-(4-(methylsulfonyl)phenyl)imidazo[2,1-b][1,3,4]thiadiazol-6-yl)piperidine-1-carboxylate], the activation at 1 µM came to 26%.

Consider `CS(=O)(=O)c1ccc(-c2cn3nc(C4CCN(S(C)(=O)=O)CC4)sc3n2)cc1` [Compound 1031, 6-(4-(methylsulfonyl)phenyl)-2-(1-(methylsulfonyl)piperidin-4-yl)imidazo[2,1-b][1,3,4]thiadiazole], for which the activation at 1 µM was found to be 1%.

`CC(C)c1noc(N2CCC(c3cn4nc(-c5ccc(S(C)(=O)=O)cc5)sc4n3)CC2)n1` [Compound 1032, 3-isopropyl-5-(4-(2-(4-(methylsulfonyl)phenyl)imidazo[2,1-b][1,3,4]thiadiazol-6-yl)piperidin-1-yl)-1,2,4-oxadiazole]: the activation at 1 µM was determined as 41%. As for `CN(C)C(=O)N1CCC(c2nn3cc(-c4ccc(S(C)(=O)=O)cc4)nc3s2)CC1` [Compound 1033, N,N-dimethyl-4-(6-(4-(methylsulfonyl)phenyl)imidazo[2,1-b][1,3,4]thiadiazol-2-yl)piperidine-1-carboxamide], the figure is 2%.

For `CC(C)OC(=O)N1CCC(c2cn3nc(-c4ccc(C(=O)N(C)C)cc4)sc3n2)CC1` [Compound 1034, isopropyl 4-(2-(4-(dimethylcarbamoyl)phenyl)imidazo[2,1-b][1,3,4]thiadiazol-6-yl)piperidine-1-carboxylate], the activation at 1 µM was found to be 53%. With `COCCNC(=O)c1ccc(-c2nn3cc(C4CCN(C(=O)OC(C)C)CC4)nc3s2)cc1` [Compound 1035, isopropyl 4-(2-(4-((2-methoxyethyl)carbamoyl)phenyl)imidazo[2,1-b][1,3,4]thiadiazol-6-yl)piperidine-1-carboxylate], the activation at 1 µM amounted to 21%. With `CC(C)c1noc(C2CCN(c3nn4cc(-c5ccc(C(=O)N(C)C)cc5)nc4s3)CC2)n1` [Compound 1036, 4-(2-(4-(3-isopropyl-1,2,4-oxadiazol-5-yl)piperidin-1-yl)imidazo[2,1-b][1,3,4]thiadiazol-6-yl)-N,N-dimethylbenzamide], the activation at 1 µM was found to be 24%. The result for `CS(=O)(=O)c1ccc(OCc2cn3nc(C4CCN(Cc5ccccc5)CC4)sc3n2)cc1` [Compound 1038, 2-(1-benzylpiperidin-4-yl)-6-((4-(methylsulfonyl)phenoxy)methyl)imidazo[2,1-b][1,3,4]thiadiazole] reads 6%; that for `COCCNC(=O)c1ccc(-c2cn3nc(N4CCC(c5nc(C(C)C)no5)CC4)sc3n2)cc1` [Compound 1039, 4-(2-(4-(3-isopropyl-1,2,4-oxadiazol-5-yl)piperidin-1-yl)imidazo[2,1-b][1,3,4]thiadiazol-6-yl)-N-(2-methoxyethyl)benzamide], 11%; that for `CC(C)c1noc(C2CCN(c3nn4cc(COc5ccc(S(C)(=O)=O)cc5)nc4s3)CC2)n1` [Compound 1040, 3-isopropyl-5-(1-(6-((4-(methylsulfonyl)phenoxy)methyl)imidazo[2,1-b][1,3,4]thiadiazol-2-yl)piperidin-4-yl)-1,2,4-oxadiazole], 4%. The result for `CC(C)c1noc(N2CCC(Oc3nn4cc(COc5ccc(S(C)(=O)=O)cc5)nc4s3)CC2)n1` [Compound 1042, 3-isopropyl-5-(4-((6-((4-(methylsulfonyl)phenoxy)methyl)imidazo[2,1-b][1,3,4]thiadiazol-2-yl)oxy)piperidin-1-yl)-1,2,4-oxadiazole] reads 2%.

Consider `CC(C)c1noc(C2CCN(c3nn4c(Cl)c(-c5ccc(S(C)(=O)=O)cc5)nc4s3)CC2)n1` [Compound 1044, 5-(1-(5-chloro-6-(4-(methylsulfonyl)phenyl)imidazo[2,1-b][1,3,4]thiadiazol-2-yl)piperidin-4-yl)-3-isopropyl-1,2,4-oxadiazole], for which the activation at 1 µM came to 71%. The result for `CS(=O)(=O)c1ccc(-c2cn3nc(N4CCC(c5nc(C6CC6)no5)CC4)sc3n2)cc1` [Compound 1045, 3-cyclopropyl-5-(1-(6-(4-(methylsulfonyl)phenyl)imidazo[2,1-b][1,3,4]thiadiazol-2-yl)piperidin-4-yl)-1,2,4-oxadiazole] reads 22%; that for `CC(C)c1noc(C2CCN(c3nn4cc(-c5ccc(C#N)cc5)nc4s3)CC2)n1` [Compound 1046, 4-(2-(4-(3-isopropyl-1,2,4-oxadiazol-5-yl)piperidin-1-yl)imidazo[2,1-b][1,3,4]thiadiazol-6-yl)benzonitrile], 26%; that for `CC(C)c1noc(N2CCC(C(C)Oc3nn4cc(-c5ccc(C#N)cc5)nc4s3)CC2)n1` (stereo not shown) [Compound 1047, 4-(2-(1-(1-(3-isopropyl-1,2,4-oxadiazol-5-yl)piperidin-4-yl)ethoxy)imidazo[2,1-b][1,3,4]thiadiazol-6-yl)benzonitrile], 51%. The result for `CC(C)c1noc(N2CCC(C(C)Oc3nn4cc(-c5ccc(C(=O)N(C)C)cc5)nc4s3)CC2)n1` (stereo not shown) [Compound 1048, 4-(2-(1-(1-(3-isopropyl-1,2,4-oxadiazol-5-yl)piperidin-4-yl)ethoxy)imidazo[2,1-b][1,3,4]thiadiazol-6-yl)-N,N-dimethylbenzamide] reads 56%.
